{"source": "patent US20230085307A1", "about": "“PYRIDAZINONE COMPOUND AND HERBICIDE” (NISSAN CHEMICAL CORPORATION, priority 2019, published 2023)", "key": {"southern crabgrass [1]": {"system": "southern crabgrass", "assay": "Test Example 5: herbicidal effect by foliage application, plastic box (Table 20, symbol F)", "type": "in vivo, southern crabgrass (Digitaria ciliaris)", "settings": "foliage application, 320 g/ha, evaluated three weeks after application", "in_short": "(§1)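 Sow seeds spot-wise in sterilized diluvial soil; cover with ~1.5 cm soil. Grow 14 days in greenhouse, 25° C. to 30° C. Spray foliage with emulsion diluted to predetermined amount. Rate effect after 3 weeks.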"}, "windgrass [2]": {"system": "windgrass", "assay": "Test Example 5: herbicidal effect by foliage application, plastic box (Table 20, symbol L)", "type": "in vivo, windgrass (Apera spica-venti)", "settings": "foliage application, 320 g/ha, evaluated three weeks after application", "in_short": "as §1"}, "blackgrass [3]": {"system": "blackgrass", "assay": "Test Example 4: herbicidal effect by soil treatment (Table 19, symbol J)", "type": "in vivo, blackgrass (Alopecurus myosuroides)", "settings": "320 g/ha", "in_short": "(§2)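 Applied as a water-diluted emulsion, the compound was sprayed onto soil covering newly sown seeds. Evaluation came three weeks after application, in a greenhouse held at 25° C. to 30° C.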"}, "lambsquarters [4]": {"system": "lambsquarters", "assay": "Test Example 5: herbicidal effect by foliage application, plastic box (Table 20, symbol O)", "type": "in vivo, lambsquarters (Chenopodium album)", "settings": "foliage application, 320 g/ha, evaluated three weeks after application", "in_short": "as §1"}, "redroot pigweed [5]": {"system": "redroot pigweed", "assay": "Test Example 5: herbicidal effect by foliage application, plastic box (Table 20, symbol N)", "type": "in vivo, redroot pigweed (Amaranthus retroflexus)", "settings": "foliage application, 320 g/ha, evaluated three weeks after application", "in_short": "as §1"}, "barnyard grass [6]": {"system": "barnyard grass", "assay": "Test Example 5: herbicidal effect by foliage application, plastic box (Table 20, symbol H)", "type": "in vivo, barnyard grass (Echinochloa crus-galli)", "settings": "foliage application, 320 g/ha, evaluated three weeks after application", "in_short": "as §1"}, "rice flat sedge": {"system": "rice flat sedge", "assay": "Test Example 3: herbicidal effect by foliage application, Wagner pot (Table 18, symbol E)", "type": "in vivo, rice flat sedge (Cyperus iria)", "settings": "320 g/ha", "in_short": "(§3)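 Plants were sown in alluvial soil held under 0.1–0.5 cm standing water and grown 14 days in a greenhouse at 25–30 °C. An emulsifiable formulation, water-diluted to the set dose, was then sprayed onto the foliage, and effects were scored three weeks later using previously defined criteria.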"}, "velvetleaf [7]": {"system": "velvetleaf", "assay": "Test Example 5: herbicidal effect by foliage application, plastic box (Table 20, symbol M)", "type": "in vivo, velvetleaf (Abutilon theophrasti)", "settings": "foliage application, 320 g/ha, evaluated three weeks after application", "in_short": "as §1"}, "persian speedwell [8]": {"system": "persian speedwell", "assay": "Test Example 5: herbicidal effect by foliage application, plastic box (Table 20, symbol R)", "type": "in vivo, Persian speedwell (Veronica persica)", "settings": "foliage application, 320 g/ha, evaluated three weeks after application", "in_short": "as §1"}, "green foxtail [9]": {"system": "green foxtail", "assay": "Test Example 4: herbicidal effect by soil treatment (Table 19, symbol G)", "type": "in vivo, green foxtail (Setaria viridis)", "settings": "320 g/ha", "in_short": "as §2"}, "chickweed [10]": {"system": "chickweed", "assay": "Test Example 5: herbicidal effect by foliage application, plastic box (Table 20, symbol P)", "type": "in vivo, common chickweed (Stellaria media)", "settings": "foliage application, 320 g/ha, evaluated three weeks after application", "in_short": "as §1"}, "wild oat [11]": {"system": "wild oat", "assay": "Test Example 5: herbicidal effect by foliage application, plastic box (Table 20, symbol I)", "type": "in vivo, wild oat (Avena fatua)", "settings": "foliage application, 320 g/ha, evaluated three weeks after application", "in_short": "as §1"}, "redroot pigweed [12]": {"system": "redroot pigweed", "assay": "Test Example 4: herbicidal effect by soil treatment (Table 19, symbol N)", "type": "in vivo, redroot pigweed (Amaranthus retroflexus)", "settings": "320 g/ha", "in_short": "as §2"}, "windgrass [13]": {"system": "windgrass", "assay": "Test Example 4: herbicidal effect by soil treatment (Table 19, symbol L)", "type": "in vivo, windgrass (Apera spica-venti)", "settings": "320 g/ha", "in_short": "as §2"}, "blackgrass [14]": {"system": "blackgrass", "assay": "Test Example 5: herbicidal effect by foliage application, plastic box (Table 20, symbol J)", "type": "in vivo, blackgrass (Alopecurus myosuroides)", "settings": "foliage application, 320 g/ha, evaluated three weeks after application", "in_short": "as §1"}, "chickweed [15]": {"system": "chickweed", "assay": "Test Example 4: herbicidal effect by soil treatment (Table 19, symbol P)", "type": "in vivo, common chickweed (Stellaria media)", "settings": "320 g/ha", "in_short": "as §2"}, "Italian ryegrass [16]": {"system": "Italian ryegrass", "assay": "Test Example 5: herbicidal effect by foliage application, plastic box (Table 20, symbol K)", "type": "in vivo, Italian ryegrass (Lolium multiflorum)", "settings": "foliage application, 320 g/ha, evaluated three weeks after application", "in_short": "as §1"}, "Italian ryegrass [17]": {"system": "Italian ryegrass", "assay": "Test Example 4: herbicidal effect by soil treatment (Table 19, symbol K)", "type": "in vivo, Italian ryegrass (Lolium multiflorum)", "settings": "320 g/ha", "in_short": "as §2"}, "wild oat [18]": {"system": "wild oat", "assay": "Test Example 4: herbicidal effect by soil treatment (Table 19, symbol I)", "type": "in vivo, wild oat (Avena fatua)", "settings": "320 g/ha", "in_short": "as §2"}, "persian speedwell [19]": {"system": "persian speedwell", "assay": "Test Example 4: herbicidal effect by soil treatment (Table 19, symbol R)", "type": "in vivo, Persian speedwell (Veronica persica)", "settings": "320 g/ha", "in_short": "as §2"}, "velvetleaf [20]": {"system": "velvetleaf", "assay": "Test Example 4: herbicidal effect by soil treatment (Table 19, symbol M)", "type": "in vivo, velvetleaf (Abutilon theophrasti)", "settings": "320 g/ha", "in_short": "as §2"}, "lambsquarters [21]": {"system": "lambsquarters", "assay": "Test Example 4: herbicidal effect by soil treatment (Table 19, symbol O)", "type": "in vivo, lambsquarters (Chenopodium album)", "settings": "320 g/ha", "in_short": "as §2"}, "barnyard grass [22]": {"system": "barnyard grass", "assay": "Test Example 3: herbicidal effect by foliage application, Wagner pot (Table 18, symbol H)", "type": "in vivo, barnyard grass (Echinochloa crus-galli)", "settings": "320 g/ha", "in_short": "as §3"}, "Chinese sprangletop": {"system": "Chinese sprangletop", "assay": "Test Example 3: herbicidal effect by foliage application, Wagner pot (Table 18, symbol D)", "type": "in vivo, chinese sprangletop (Leptochloa chinensis)", "settings": "320 g/ha", "in_short": "as §3"}, "barnyard grass [23]": {"system": "barnyard grass", "assay": "Test Example 4: herbicidal effect by soil treatment (Table 19, symbol H)", "type": "in vivo, barnyard grass (Echinochloa crus-galli)", "settings": "320 g/ha", "in_short": "as §2"}, "southern crabgrass [24]": {"system": "southern crabgrass", "assay": "Test Example 4: herbicidal effect by soil treatment (Table 19, symbol F)", "type": "in vivo, southern crabgrass (Digitaria ciliaris)", "settings": "320 g/ha", "in_short": "as §2"}, "green foxtail [25]": {"system": "green foxtail", "assay": "Test Example 5: herbicidal effect by foliage application, plastic box (Table 20, symbol G)", "type": "in vivo, green foxtail (Setaria viridis)", "settings": "foliage application, 320 g/ha, evaluated three weeks after application", "in_short": "as §1"}}, "data": [{"compound": "COc1ccc(-c2sc3ccc(F)cc3c2-c2c(O)c(C)nn(C)c2=O)cc1F", "note": "[2-086]", "values": [{"measurement": "herbicidal effect on F: southern crabgrass", "setting": "southern crabgrass [1]", "result": "0 (Herbicidal rate of 5% or less (almost no effect))"}, {"measurement": "herbicidal effect on L: windgrass", "setting": "windgrass [2]", "result": "0 (Herbicidal rate of 5% or less (almost no effect))"}, {"measurement": "herbicidal effect rating, J: blackgrass", "setting": "blackgrass [3]", "result": "0 (Herbicidal rate of 5% or less (almost no effect))"}, {"measurement": "herbicidal effect on O: lambsquarters", "setting": "lambsquarters [4]", "result": "4 (Herbicidal rate of 70% or more and less than 90%)"}, {"measurement": "herbicidal effect on N: redroot pigweed", "setting": "redroot pigweed [5]", "result": "4 (Herbicidal rate of 70% or more and less than 90%)"}, {"measurement": "herbicidal effect on H: barnyard grass", "setting": "barnyard grass [6]", "result": "3 (Herbicidal rate of 40% or more and less than 70%)"}, {"measurement": "herbicidal effect on E (rice flat sedge), rating 0-5", "setting": "rice flat sedge", "result": "5 (Herbicidal rate of 90% or more (almost completely withered))"}, {"measurement": "herbicidal effect on M: velvetleaf", "setting": "velvetleaf [7]", "result": "5 (Herbicidal rate of 90% or more (almost completely withered))"}, {"measurement": "herbicidal effect on R: persian speedwell", "setting": "persian speedwell [8]", "result": "5 (Herbicidal rate of 90% or more (almost completely withered))"}, {"measurement": "herbicidal effect rating, G: green foxtail", "setting": "green foxtail [9]", "result": "3 (Herbicidal rate of 40% or more and less than 70%)"}, {"measurement": "herbicidal effect on P: chickweed", "setting": "chickweed [10]", "result": "5 (Herbicidal rate of 90% or more (almost completely withered))"}, {"measurement": "herbicidal effect on I: wild oat", "setting": "wild oat [11]", "result": "0 (Herbicidal rate of 5% or less (almost no effect))"}, {"measurement": "herbicidal effect rating, N: redroot pigweed", "setting": "redroot pigweed [12]", "result": "4 (Herbicidal rate of 70% or more and less than 90%)"}, {"measurement": "herbicidal effect rating, L: windgrass", "setting": "windgrass [13]", "result": "0 (Herbicidal rate of 5% or less (almost no effect))"}, {"measurement": "herbicidal effect on J: blackgrass", "setting": "blackgrass [14]", "result": "0 (Herbicidal rate of 5% or less (almost no effect))"}, {"measurement": "herbicidal effect rating, P: chickweed", "setting": "chickweed [15]", "result": "0 (Herbicidal rate of 5% or less (almost no effect))"}, {"measurement": "herbicidal effect on K: Italian ryegrass", "setting": "Italian ryegrass [16]", "result": "0 (Herbicidal rate of 5% or less (almost no effect))"}, {"measurement": "herbicidal effect rating, K: Italian ryegrass", "setting": "Italian ryegrass [17]", "result": "0 (Herbicidal rate of 5% or less (almost no effect))"}, {"measurement": "herbicidal effect rating, I: wild oat", "setting": "wild oat [18]", "result": "0 (Herbicidal rate of 5% or less (almost no effect))"}, {"measurement": "herbicidal effect rating, R: persian speedwell", "setting": "persian speedwell [19]", "result": "5 (Herbicidal rate of 90% or more (almost completely withered))"}, {"measurement": "herbicidal effect rating, M: velvetleaf", "setting": "velvetleaf [20]", "result": "4 (Herbicidal rate of 70% or more and less than 90%)"}, {"measurement": "herbicidal effect rating, O: lambsquarters", "setting": "lambsquarters [21]", "result": "5 (Herbicidal rate of 90% or more (almost completely withered))"}, {"measurement": "herbicidal effect on H (barnyard grass), rating 0-5", "setting": "barnyard grass [22]", "result": "3 (Herbicidal rate of 40% or more and less than 70%)"}, {"measurement": "herbicidal effect on D (Chinese sprangletop), rating 0-5", "setting": "Chinese sprangletop", "result": "3 (Herbicidal rate of 40% or more and less than 70%)"}, {"measurement": "herbicidal effect rating, H: barnyard grass", "setting": "barnyard grass [23]", "result": "3 (Herbicidal rate of 40% or more and less than 70%)"}, {"measurement": "herbicidal effect rating, F: southern crabgrass", "setting": "southern crabgrass [24]", "result": "1 (Herbicidal rate of 5% or more and less than 20%)"}, {"measurement": "herbicidal effect on G: green foxtail", "setting": "green foxtail [25]", "result": "3 (Herbicidal rate of 40% or more and less than 70%)"}]}]}
